Values quoted from earlier work in patent publication US20180128811A1 (JNC Corporation, priority 2012, published 2018).

Details: small doses (about less than 250 mg), first-order kinetics; cited from earlier work

CC(=O)Oc1ccccc1C(=O)O [aspirin, acetylsalicylic acid]
Elimination half-life: about 4 hours
